From publication PMC7461557, “Multicopy Suppressor Analysis of Strains Lacking Cytoplasmic Peptidyl-Prolyl cis/trans Isomerases Identifies Three New PPIase Activities in Escherichia coli That Includes the DksA Transcription Factor” (International Journal of Molecular Sciences, 2020)

Experiments:
MetL = target: T1, MetL (Escherichia coli, UniProt P00562); assay: chymotrypsin-coupled PPIase assay, absorbance […] nm; format: biochemical; settings: inhibitor; substrate N-Suc-Ala-Ala-cis-Pro-Phe-p-nitroanilide; two-fold molar excess of FK506, 5 min preincubation; 35 mM HEPES pH 8.0, 10 °C
T1 construct: ASKA clone in pCA24N, Ni-NTA purified from E. coli lacking six PPIs (SR18292)
T1 sequence (P00562 whole entry): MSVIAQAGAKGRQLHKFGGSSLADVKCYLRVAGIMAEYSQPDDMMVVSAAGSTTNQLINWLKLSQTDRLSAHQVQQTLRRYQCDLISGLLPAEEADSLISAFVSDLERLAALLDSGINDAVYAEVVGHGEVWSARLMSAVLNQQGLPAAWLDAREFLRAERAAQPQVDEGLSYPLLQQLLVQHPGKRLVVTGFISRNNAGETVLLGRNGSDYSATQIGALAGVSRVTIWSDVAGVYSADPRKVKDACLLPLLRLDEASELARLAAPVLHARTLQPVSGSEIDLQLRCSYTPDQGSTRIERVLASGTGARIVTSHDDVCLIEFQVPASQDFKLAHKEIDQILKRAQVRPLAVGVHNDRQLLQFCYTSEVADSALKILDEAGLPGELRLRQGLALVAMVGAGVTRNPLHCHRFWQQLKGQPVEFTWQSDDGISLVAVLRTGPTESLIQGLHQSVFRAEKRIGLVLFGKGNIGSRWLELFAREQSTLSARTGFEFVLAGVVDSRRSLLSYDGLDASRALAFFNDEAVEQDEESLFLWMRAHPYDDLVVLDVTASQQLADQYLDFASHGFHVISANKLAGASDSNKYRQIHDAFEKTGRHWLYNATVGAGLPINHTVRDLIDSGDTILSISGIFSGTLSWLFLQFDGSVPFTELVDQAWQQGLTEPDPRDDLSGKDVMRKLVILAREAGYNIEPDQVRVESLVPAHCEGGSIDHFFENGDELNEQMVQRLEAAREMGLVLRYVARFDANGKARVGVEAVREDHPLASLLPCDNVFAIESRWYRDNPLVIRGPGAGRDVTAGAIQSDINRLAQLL

Cmk = target: T2, Cmk (Escherichia coli, UniProt P0A6I0); assay: chymotrypsin-coupled PPIase assay, absorbance […] nm; format: biochemical; settings: inhibitor; substrate N-Suc-Ala-Ala-cis-Pro-Phe-p-nitroanilide; two-fold molar excess of FK506, 5 min preincubation; 35 mM HEPES pH 8.0, 10 °C
T2 construct: ASKA clone in pCA24N, Ni-NTA purified from E. coli lacking six PPIs (SR18292)
T2 sequence (P0A6I0 1-227): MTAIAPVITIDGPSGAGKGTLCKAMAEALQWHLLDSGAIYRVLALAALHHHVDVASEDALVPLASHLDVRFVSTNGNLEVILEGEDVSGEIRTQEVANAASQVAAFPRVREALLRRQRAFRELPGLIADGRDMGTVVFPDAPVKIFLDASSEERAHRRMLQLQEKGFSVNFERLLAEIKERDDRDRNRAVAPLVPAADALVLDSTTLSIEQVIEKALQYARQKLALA

C=CC[C@@H]1/C=C(\C)C[C@H](C)C[C@H](OC)[C@H]2O[C@@](O)(C(=O)C(=O)N3CCCC[C@H]3C(=O)O[C@H](/C(C)=C/[C@@H]3CC[C@@H](O)[C@H](OC)C3)[C@H](C)[C@@H](O)CC1=O)[C@H](C)C[C@@H]2OC [FK506]
chymotrypsin-coupled PPIase assay, absorbance 390 nm (MetL): inhibition of the PPIase activity of MetL by the two-fold molar excess of FK506 | chymotrypsin-coupled PPIase assay, absorbance 390 nm (Cmk): inhibition of the PPIase activity of Cmk by the two-fold molar excess of FK506
